The values that follow come from patent US10611750B2, “Tetrahydroquinoline compositions as bet bromodomain inhibitors” (FORMA Therapeutics, Inc., priority 2013, dated 2020).

In assay [1] the target is T1, BRD4 Bromodomain 1 (BRD4 BD1) (Homo sapiens, UniProt O60885).
T1 construct: 44-168 and BRD4 BD2
The assay is described as follows: AlphaScreen binding assay, BRD4 BD1. Particulars: His-tagged BRD4 BD1 50 nM, biotinylated H4 (1-21) K5/8/12/16 tetra-acetylated peptide 50 nM, compounds listed under IC50 range headings. The essentials: (§1)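 An AlphaScreen competition format was used with His-BRD4 BD1 or BD2 and biotin-H4 K5/8/12/16-acetyl peptide, each at matched final levels of 50 nM (BD1) or 100 nM (BD2). Incubation in HEPES/NaCl buffer with 0.1% BSA and 0.01% Triton X-100 ran ≥1 h before IC50 determination.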

Assay [2] deals with T2, BRD4 Bromodomain 2 (BRD4 BD2) (Homo sapiens, UniProt O60885).
T2 construct: 333-460 were cloned, expressed, and purified to homogeneity
The assay is described as follows: AlphaScreen binding assay, BRD4 BD2. Particulars: His-tagged BRD4 BD2 100 nM, biotinylated H4 (1-21) K5/8/12/16 tetra-acetylated peptide 100 nM, compounds listed under IC50 range headings. In outline: as §1

Assay [3] concerns acute myelocytic leukemia (AML) cell line MV4-11. Nature of the assay: Oncology cell growth assay (3-day proliferation, CellTiter-Glo). Type of assay: cell-based. Particulars: Homo sapiens, MV4-11, 72 h, MV4-11 cells, 3000 cells/well, compounds listed under IC50 range headings, read-out: MV411 IC50 (gIC50, inhibition of proliferation). In outline:
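MV4-11 AML cells (RPMI 1640, 10% FBS) plated at 3000 cells/well and exposed 72 h to compound at final 10 to 0.0045 μM (3-fold series). Viability read by CellTiter-Glo luminescence; gIC50 from four-parameter logistic fit between DMSO control and no-cell background.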

For `CC(=O)N1c2ccc(-c3cnn(C4CC4)c3)c(Oc3ccccc3Cl)c2CC[C@@H]1C` [I-211, (S)-1-(5-(2-chlorophenoxy)-6-(1-cyclopropyl-1H-pyrazol-4-yl)-2-methyl-3,4-dihydroquinolin-1(2H)-yl)ethanone], the IC50 is 100 to 1000 nM in assay [1], below 50 nM in assay [2] and below 500 nM in assay [3].

Regarding `COC(=O)N1c2ccc(-c3cnn(C4CCNCC4)c3)c(Oc3cccc(Cl)c3C#N)c2CC[C@@H]1C` [I-149, (S)-methyl 5-(3-chloro-2-cyanophenoxy)-2-methyl-6-(1-(piperidin-4-yl)-1H-pyrazol-4-yl)-3,4-dihydroquinoline-1(2H)-carboxylate], the IC50 is 100 to 1000 nM in assay [1], below 50 nM in assay [2] and below 500 nM in assay [3].

Regarding `COC(=O)N1c2ccc(-c3cnn(C4CCNCC4)c3)c(Oc3ccccc3)c2CC[C@@H]1C` [I-200, (S)-methyl 2-methyl-5-phenoxy-6-(1-(piperidin-4-yl)-1H-pyrazol-4-yl)-3,4-dihydroquinoline-1(2H)-carboxylate], the IC50 is 100 to 1000 nM in assay [1], below 50 nM in assay [2] and below 500 nM in assay [3].

With `C[C@H]1CCc2c(ccc(-c3cnn(C4CNC4)c3)c2Oc2ccc(F)cc2)N1C(=O)C1CC1` [I-170, (S)-(6-(1-(azetidin-3-yl)-1H-pyrazol-4-yl)-5-(4-fluorophenoxy)-2-methyl-3,4-dihydroquinolin-1 (2H)-yl)(cyclopropyl)methanone], the IC50 was 100 to 1000 nM in assay [1], below 50 nM in assay [2] and below 500 nM in assay [3].

As to `CC(=O)N1c2ccc(-c3cnn(C4CC4)c3)c(Oc3ccccn3)c2CC[C@@H]1C` [I-89, (S)-1-(6-(1-cyclopropyl-1H-pyrazol-4-yl)-2-methyl-5-(pyridin-2-yloxy)-3,4-dihydroquinolin-1(2H)-yl)ethanone], the IC50 was 100 to 1000 nM in assay [1], 50 to 500 nM in assay [2] and below 500 nM in assay [3].

As for `COC(=O)N1c2ccc(-c3cnn(C4CC4)c3)c(Oc3ccc(C#N)cc3)c2CC[C@@H]1C` [I-213, (S)-methyl 5-(4-cyanophenoxy)-6-(1-cyclopropyl-1H-pyrazol-4-yl)-2-methyl-3,4-dihydroquinoline-1(2H)-carboxylate], the IC50 is 100 to 1000 nM in assay [1], 50 to 500 nM in assay [2] and below 500 nM in assay [3].

Consider `CCCOc1c(-c2nc3ccccc3[nH]2)ccc2c1CC[C@H](C)N2C(C)=O` [I-121, (S)-1-(6-(1H-benzo[d]imidazol-2-yl)-2-methyl-5-propoxy-3,4-dihydroquinolin-1(2H)-yl)ethanone], for which the IC50 in assay [1] was 1000 to 10000 nM; in assay [2], 50 to 500 nM; in assay [3], 500 to 1000 nM.

`COC(=O)N1c2ccc(-c3cnn(CCS(C)(=O)=O)c3)c(Oc3ncc(C(F)(F)F)cn3)c2CC[C@@H]1C` [I-578]: the IC50 in assay [1] was 1000 to 10000 nM; in assay [2], 50 to 500 nM; in assay [3], above 1000 nM.

With `COC(=O)N1c2ccc(-c3cnn(CC(C)(C)O)c3)c(Oc3ncc(C(F)(F)F)cn3)c2CC[C@@H]1C` [I-579], the IC50 is 1000 to 10000 nM in assay [1], 50 to 500 nM in assay [2] and above 1000 nM in assay [3].

As for `COC(=O)N1c2ccc(-c3cnn(C4CCNCC4)c3)c(Oc3ncc(C4CC4)cn3)c2CC[C@@H]1C` [I-532], the results for the IC50 in assay [1], in assay [2] and in assay [3] were 1000 to 10000 nM, 50 to 500 nM and 500 to 1000 nM, respectively.

On to `CCCOc1c(C2CCN(CC)CC2)ccc2c1CC[C@H](C)N2C(C)=O` [I-358, (S)-1-(6-(1-ethylpiperidin-4-yl)-2-methyl-5-propoxy-3,4-dihydroquinolin-1(2H)-yl)ethan-1-one], for which the IC50 in assay [1] is at least 10000 nM; in assay [2], at least 500 nM; in assay [3], above 1000 nM.

In the case of `C[C@H]1CCc2c(ccc(-c3cnn(C4CCNCC4)c3)c2Oc2ccccc2)N1C(=O)C1CC1` [I-168, (S)-cyclopropyl(2-methyl-5-phenoxy-6-(1-(piperidin-4-yl)-1H-pyrazol-4-yl)-3,4-dihydroquinolin-1(2H)-yl)methanone], the IC50 in assay [1] was 100 to 1000 nM; in assay [2], below 50 nM; in assay [3] it was below 500 nM.

Regarding `COC(=O)N1c2ccc(-c3cnn(C4CC4)c3)c(Oc3ncccc3C(F)(F)F)c2CC[C@@H]1C` [I-565], the results for the IC50 in assay [1], in assay [2] and in assay [3] were 1000 to 10000 nM, 50 to 500 nM and 500 to 1000 nM, respectively.

Regarding `CCCOc1c(-c2nc3ccccc3o2)ccc2c1CC[C@H](C)N2C(C)=O` [I-117, (S)-1-(6-(benzo[d]oxazol-2-yl)-2-methyl-5-propoxy-3,4-dihydroquinolin-1(2H)-yl)ethanone], the IC50 in assay [1] is 1000 to 10000 nM; in assay [2], 50 to 500 nM; in assay [3] it was above 1000 nM.

As to `CC(=O)N1c2ccc(-c3cnn(C4CC4)c3)c(Oc3cc(C)ccn3)c2CC[C@@H]1C` [I-255, 1-[(2S)-6-(1-cyclopropyl-1H-pyrazol-4-yl)-2-methyl-5-[(4-methylpyridin-2-yl)oxy]-1,2,3,4-tetrahydroquinolin-1-yl]ethan-1-one], the IC50 in assay [1] is 100 to 1000 nM; in assay [2] it was below 50 nM; in assay [3], below 500 nM.

Consider `COC(=O)N1c2ccc(-c3cnn(CCS(C)(=O)=O)c3)c(Oc3cnccn3)c2CC[C@@H]1C` [I-558], for which the results for the IC50 in assay [1], in assay [2] and in assay [3] were 1000 to 10000 nM, 50 to 500 nM and above 1000 nM, respectively.

In the case of `CCCOc1c(-c2cnn(CCS(C)(=O)=O)c2)ccc2c1CC[C@H](C)N2C(C)=O` [I-407], the results for the IC50 in assay [1], in assay [2] and in assay [3] were 100 to 1000 nM, below 50 nM and below 500 nM, respectively.

In the case of `CC(=O)N1c2ccc(-c3ccc(S(C)(=O)=O)cn3)c(OCC(=O)N(C)C)c2CC[C@@H]1C` [I-116, (S)-2-(1-acetyl-2-methyl-6-(5-(methylsulfonyl)pyridin-2-yl)-1,2,3,4-tetrahydroquinolin-5-yloxy)-N,N-dimethylacetamide], the IC50 in assay [1] was at least 10000 nM; in assay [2] it was 50 to 500 nM; in assay [3], above 1000 nM.

Regarding `CC(=O)N1c2ccc(-c3cnn(C4CC4)c3)c(OCC(=O)N3CCC3)c2CC[C@@H]1C` [I-7, (S)-2-(1-acetyl-6-(1-cyclopropyl-1H-pyrazol-4-yl)-2-methyl-1,2,3,4-tetrahydroquinolin-5-yloxy)-1-(azetidin-1-yl)ethanone], the IC50 in assay [1] was 100 to 1000 nM; in assay [2], 50 to 500 nM; in assay [3], below 500 nM.

Consider `COC(=O)N1c2ccc(-c3cnn(CC(C)(C)O)c3)c(Oc3ncccc3C(F)(F)F)c2CC[C@@H]1C` [I-563], for which the IC50 in assay [1] was 1000 to 10000 nM; in assay [2], below 50 nM; in assay [3], above 1000 nM.

On to `COC(=O)N1c2ccc(-c3cnn(C4CC4)c3)c(OCCC3COC3)c2CC[C@@H]1C` [I-30, (S)-methyl 6-(1-cyclopropyl-1H-pyrazol-4-yl)-2-methyl-5-(2-(oxetan-3-yl)ethoxy)-3,4-dihydroquinoline-1(2H)-carboxylate], for which the IC50 in assay [1] is 1000 to 10000 nM; in assay [2], 50 to 500 nM; in assay [3], below 500 nM.

Regarding `CC(=O)N1c2ccc(-c3cnn(C4CC4)c3)c(OC[C@H]3CCNC3)c2CC[C@@H]1C` [I-603], the IC50 in assay [1] was 100 to 1000 nM; in assay [2] it was 50 to 500 nM; in assay [3] it was above 1000 nM.

Consider `COC(=O)N1c2ccc(-c3cnn(CCO)c3)c(Oc3ncccc3C(F)(F)F)c2CC[C@@H]1C` [I-564], for which the IC50 in assay [1] lay in the range of 1000 to 10000 nM; in assay [2], 50 to 500 nM; in assay [3], 500 to 1000 nM.

Regarding `CCCOc1c(-c2cnn(C3CCNCC3)c2)ccc2c1CC[C@H](C)N2C(=O)C1CC1` [I-100, (S)-cyclopropyl(2-methyl-6-(1-(piperidin-4-yl)-1H-pyrazol-4-yl)-5-propoxy-3,4-dihydroquinolin-1(2H)-yl)methanone], the IC50 was 100 to 1000 nM in assay [1], below 50 nM in assay [2] and below 500 nM in assay [3].

Turning to `COC(=O)c1ccc(Oc2c(-c3cnn(C4CCNCC4)c3)ccc3c2CC[C@H](C)N3C(=O)OC)nc1` [I-537], the IC50 in assay [1] fell in the range of 1000 to 10000 nM; in assay [2] it was 50 to 500 nM; in assay [3] it was 500 to 1000 nM.

On to `CC(=O)N1c2ccc(-c3cnn(C4CC4)c3)c(Oc3cnccn3)c2CC[C@@H]1C` [I-88, (S)-1-(6-(1-cyclopropyl-1H-pyrazol-4-yl)-2-methyl-5-(pyrazin-2-yloxy)-3,4-dihydroquinolin-1(2H)-yl)ethanone], for which the IC50 in assay [1] is 100 to 1000 nM; in assay [2], below 50 nM; in assay [3] it was below 500 nM.

In the case of `CC(=O)N1c2ccc(-c3cnn(C4CCNCC4)c3)c(Oc3cnccn3)c2CC[C@@H]1C` [I-145, (S)-1-(2-methyl-6-(1-(piperidin-4-yl)-1H-pyrazol-4-yl)-5-(pyrazin-2-yloxy)-3,4-dihydroquinolin-1(2H)-yl)ethanone], the IC50 was 100 to 1000 nM in assay [1], below 50 nM in assay [2] and below 500 nM in assay [3].

As for `CC(=O)N1c2ccc(-c3cnn(C4CC4)c3)c(OCC3CCOCC3)c2CC[C@@H]1C` [I-400], the IC50 was 100 to 1000 nM in assay [1], 50 to 500 nM in assay [2] and below 500 nM in assay [3].

On to `COC(=O)N1c2ccc(-c3cnn(C4CCN(C)CC4)c3)c(OC3CCC3)c2CC[C@@H]1C` [I-285, Methyl (S)-5-cyclobutoxy-2-methyl-6-(1-(1-methylpiperidin-4-yl)-1H-pyrazol-4-yl)-3,4-dihydroquinoline-1(2H)-carboxylate], for which the IC50 in assay [1] is 100 to 1000 nM; in assay [2], below 50 nM; in assay [3], below 500 nM.
